Results published in patent US12492173B2, “Herbicidal substituted N-tetrazolyl aryl carboxamides” (Bayer Aktiengesellschaft, priority 2019, dated 2025).

Key:
Format in all cases: in vivo
Viola tricolor [1] = experiment: Post-emergence herbicidal action, VIOTR; set-up: key: % herbicidal action vs untreated; 100 = plants died, 0 = like control
How it was run: (§1)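 Treatment: post-emergence spray, one-leaf stage. Medium: sandy loam, greenhouse. Carrier: 600–800 l/ha water, 0.2% wetting agent. Read-out: visual % activity at ~3 weeks, untreated plants as reference.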

Veronica persica [2] = experiment: Post-emergence herbicidal action, VERPE; set-up: key: % herbicidal action vs untreated; 100 = plants died, 0 = like control
How it was run: as §1

Veronica persica [3] = experiment: Pre-emergence herbicidal action, VERPE; set-up: key to Herbicidal action against VERPE: % activity: 100 = plants have died, 0 = like control plants; conditions: for herbicidal activity VERPE / herbicidal action VERPE: dosage 320 g/ha; for herbicidal activity VERPE: scored visually after 3 weeks vs untreated controls (100% = plants have died); for Herbicidal action against VERPE: comparative experiment
How it was run: (§2)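 Seeds were covered with sandy loam soil, then received a pre-emergence surface spray of the WP- or EC-formulated compound. After 3 weeks under good greenhouse growth conditions, damage was scored visually in percent.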

Viola tricolor [4] = experiment: Pre-emergence herbicidal action, VIOTR; set-up: key to Herbicidal action against VIOTR: % activity: 100 = plants have died, 0 = like control plants; conditions: for herbicidal activity VIOTR / herbicidal action VIOTR: dosage 320 g/ha; for herbicidal activity VIOTR: scored visually after 3 weeks vs untreated controls (100% = plants have died)
How it was run: as §2

Polygonum convolvulus = experiment: Post-emergence herbicidal action, POLCO; conditions: for Herbicidal action against POLCO: comparative experiment, 20 g of a.i./ha
How it was run: as §1

Echinochloa crus-galli = experiment: Post-emergence herbicidal action, ECHCG; set-up: key: % herbicidal action vs untreated; 100 = plants died, 0 = like control
How it was run: as §1

[5] = comparative experiment, post-emergence, 5 g of a.i./ha
[6] = comparative experiment, post-emergence, 20 g of a.i./ha

Row | Compound | herbicidal action VIOTR (Viola tricolor [1]; Dosage 80 g/ha) | herbicidal action VERPE (Veronica persica [2]; Dosage 80 g/ha) | herbicidal activity VERPE (Veronica persica [3]) | herbicidal activity VIOTR (Viola tricolor [4]) | herbicidal action ECHCG (Echinochloa crus-galli; Dosage 80 g/ha) | herbicidal action VIOTR (Viola tricolor [1]; post-emergence, dosage 80 g/ha) | herbicidal action VERPE (Veronica persica [2]; post-emergence, dosage 80 g/ha) | herbicidal action ECHCG (Echinochloa crus-galli; post-emergence, dosage 80 g/ha) | herbicidal action VERPE (Veronica persica [3]) | herbicidal action VIOTR (Viola tricolor [4]) | further results
1 | CCCn1nnnc1NC(=O)c1ccc(C(F)F)c(CS(C)(=O)=O)c1SC [Example 3-172] | 90 | 100 | 100% | 100% | 90 |  |  |  |  |  | herbicidal action POLCO (Polygonum convolvulus; Dosage 80 g/ha): 80
2 | CCn1nnnc1NC(=O)c1ccc(C(F)(F)F)c(C[S+]([O-])CC)c1Br (stereo not shown) [Example 2-384] |  |  | 100% | 100% |  | 100% | 100% | 90% |  |  | herbicidal action POLCO (Polygonum convolvulus; post-emergence, dosage 80 g/ha): 80%
3 | CCSCc1c(C(F)(F)F)ccc(C(=O)Nc2nnnn2CC)c1C [Example 2-86] |  |  |  |  |  | 100% | 90% | 90% | 100% | 100% | herbicidal action POLCO (Polygonum convolvulus; post-emergence, dosage 80 g/ha): 100%
4 | Cn1nnnc1NC(=O)c1ccc(I)c(C[S+](C)[O-])c1Cl (racemic) [Example 1-363] |  |  | 100% | 100% |  | 100% | 100% | 100% |  |  | 
5 | CSc1c(C(=O)Nc2nnnn2C)ccc(C(F)F)c1C[S+](C)[O-] (stereo not shown) [Example 1-171] | 90 | 100 | 100% | 100% | 100 |  |  |  |  |  | herbicidal action POLCO (Polygonum convolvulus; Dosage 80 g/ha): 100
6 | CCn1nnnc1NC(=O)c1ccc(C(F)(F)F)c(CS(=O)(=O)CC)c1Br [Example 2-385] |  |  | 100% | 100% |  | 100% | 100% | 90% |  |  | herbicidal action POLCO (Polygonum convolvulus; post-emergence, dosage 80 g/ha): 90%
7 | CCSCc1c(C(F)(F)F)ccc(C(=O)Nc2nnnn2C)c1SCC [Example 1-182] | 100 | 100 | 100% | 100% | 90 |  |  |  |  |  | Herbicidal action against VIOTR (Viola tricolor [1]; [5]): 90; Herbicidal action against VERPE (Veronica persica [2]; [5]): 100; Herbicidal action against VERPE (Veronica persica [3]; 20 g of a.i./ha): 90; Herbicidal action against VIOTR (Viola tricolor [4]; comparative experiment, 20 g of a.i./ha): 80; Herbicidal action against ECHCG (Echinochloa crus-galli; [5]): 80
8 | COCC[S+]([O-])Cc1c(C(F)(F)F)ccc(C(=O)Nc2nnnn2C)c1Cl (racemic) [Example 1-306] | 100 | 90 | 90% | 100% | 90 |  |  |  |  |  | herbicidal action POLCO (Polygonum convolvulus; Dosage 80 g/ha): 90
9 | Cn1nnnc1NC(=O)c1ccc(C(F)F)c(CS(C)(=O)=O)c1Cl [Example 1-322] |  |  | 100% | 100% |  | 100% | 100% | 100% |  |  | herbicidal action POLCO (Polygonum convolvulus; post-emergence, dosage 80 g/ha): 90%
10 | CCn1nnnc1NC(=O)c1ccc(C(F)(F)F)c(CSC)c1Cl [Example 2-296] |  |  | 100% | 100% |  | 100% | 100% | 90% |  |  | herbicidal action POLCO (Polygonum convolvulus; post-emergence, dosage 80 g/ha): 100%
11 | CSCc1c(Cl)ccc(C(=O)Nc2nnnn2C)c1Cl [Example 1-559] |  |  |  |  |  | 100% | 100% | 100% | 90% | 100% | 
12 | CCCn1nnnc1NC(=O)c1ccc(C(F)F)c(C[S+](C)[O-])c1SC (stereo not shown) [Example 3-171] | 100 | 100 | 100% | 100% | 90 |  |  |  |  |  | herbicidal action POLCO (Polygonum convolvulus; Dosage 80 g/ha): 90
13 | CCS(=O)(=O)Cc1c(C(F)(F)F)ccc(C(=O)Nc2nnnn2C)c1Br [Example 1-385] |  |  | 100% | 100% |  | 100% | 100% | 90% |  |  | Herbicidal action against VIOTR (Viola tricolor [1]; [6]): 100; Herbicidal action against VERPE (Veronica persica [2]; [6]): 100; Herbicidal action against VERPE (Veronica persica [3]; 80 g of a.i./ha): 100; Herbicidal action against POLCO (Polygonum convolvulus; post-emergence): 70; herbicidal action POLCO (Polygonum convolvulus; post-emergence, dosage 80 g/ha): 90%; Herbicidal action against ECHCG (Echinochloa crus-galli; [6]): 90
14 | C=CCSCc1c(C(F)(F)F)ccc(C(=O)Nc2nnnn2CCC)c1Cl [Example 3-308] | 80 | 80 | 100% | 100% | 100 |  |  |  |  |  | 
15 | Cn1nnnc1NC(=O)c1ccc(C(F)(F)F)c(C[S+]([O-])C2CC2)c1Cl (racemic) [Example 1-303] |  |  | 100% | 100% |  | 100% | 100% | 100% |  |  | herbicidal action POLCO (Polygonum convolvulus; post-emergence, dosage 80 g/ha): 100%
16 | CCn1nnnc1NC(=O)c1ccc(I)c(C[S+](C)[O-])c1Cl (stereo not shown) [Example 2-363] | 100 | 100 | 100% | 100% | 100 |  |  |  |  |  | herbicidal action POLCO (Polygonum convolvulus; Dosage 80 g/ha): 100
17 | Cn1nnnc1NC(=O)c1ccc(C(F)(F)F)c(CSCC(F)(F)F)c1Cl [Example 1-311] | 100 | 100 | 100% | 100% | 100 |  |  |  |  |  | 
18 | CCn1nnnc1NC(=O)c1ccc(C(F)(F)F)c(CS(=O)(=O)CC)c1C [Example 2-88] | 100 | 100 |  |  | 90 |  |  |  | 100% | 100% | 
19 | CCCn1nnnc1NC(=O)c1ccc(S(C)(=O)=O)c(CSC)c1C [Example 3-37] | 100 | 100 |  |  | 100 |  |  |  | 100% | 100% | 
20 | CCCn1nnnc1NC(=O)c1ccc(C(F)(F)F)c(C[S+](C)[O-])c1OC (stereo not shown) [Example 3-135] | 100 |  |  |  | 100 |  |  |  |  | 100% | herbicidal action POLCO (Polygonum convolvulus; Dosage 80 g/ha): 100
21 | CCCn1nnnc1NC(=O)c1ccc(C(F)F)c(CS(C)(=O)=O)c1Cl [Example 3-322] |  | 80 | 100% | 100% | 100 |  |  |  |  |  | herbicidal action POLCO (Polygonum convolvulus; Dosage 80 g/ha): 80
22 | CSCc1c(C)ccc(C(=O)Nc2nnnn2C)c1Cl [Example 1-287] | 100 | 100 |  |  | 100 |  |  |  | 100% | 90% | 
23 | CCS(=O)(=O)c1c(C(F)(F)F)ccc(C(=O)Nc2nnnn2C)c1Br [Example V-13, 2-bromo-3-(ethylsulfonyl)-N-(1-methyl-1-1H-tetrazol-5-yl)-4-(trifluoromethyl)benzamide, reference compound] |  |  |  |  |  |  |  |  |  |  | Herbicidal action against VIOTR (Viola tricolor [1]; [6]): 0; Herbicidal action against VERPE (Veronica persica [2]; [6]): 0; Herbicidal action against VERPE (Veronica persica [3]; 80 g of a.i./ha): 0; Herbicidal action against POLCO (Polygonum convolvulus; post-emergence): 0; Herbicidal action against ECHCG (Echinochloa crus-galli; [6]): 0
24 | CCCn1nnnc1NC(=O)c1ccc(S(C)(=O)=O)c(CS(C)(=O)=O)c1C [Example 3-39] | 100 | 100 |  |  | 90 |  |  |  | 100% | 100% | 
25 | COc1c(C(=O)Nc2nnnn2C)ccc(C(F)(F)F)c1C[S+](C)[O-] (stereo not shown) [Example 1-135] | 90 | 100 |  |  | 90 |  |  |  | 100% | 90% | 
26 | Cc1ccc(C(=O)Nc2nnnn2C)c(Cl)c1C[S+](C)[O-] (racemic) [Example 1-288] | 100 | 100 |  |  | 90 |  |  |  | 90% | 90% | 
27 | CCn1nnnc1NC(=O)c1ccc(S(C)(=O)=O)c(CS(C)(=O)=O)c1Cl [Example 2-280] |  |  |  |  |  |  |  |  | 100% | 90% | Herbicidal action against VIOTR (Viola tricolor [1]; post-emergence, dosage 80 g/ha): 90; Herbicidal action against VERPE (Veronica persica [2]; post-emergence, dosage 80 g/ha): 80; Herbicidal action against ECHCG (Echinochloa crus-galli; post-emergence, dosage 80 g/ha): 90
28 | CCCn1nnnc1NC(=O)c1ccc(C(F)F)c(CS(=O)(=O)CC)c1Cl [Example 3-325] | 100 |  |  | 100% | 100 |  |  |  |  |  | 
29 | Cc1c(C(=O)Nc2nnnn2C)ccc(C(F)F)c1C[S+](C)[O-] (stereo not shown) [Example 1-108] | 100 | 100 |  |  | 80 |  |  |  | 90% | 100% | 
30 | CCn1nnnc1NC(=O)c1ccc(C(F)F)c(C[S+](C)[O-])c1C (stereo not shown) [Example 2-108] | 100 | 100 |  |  | 100 |  |  |  | 100% | 100% | 
